Type in all cases: biochemical
The target in assay [1] is T1, human JAK2 (a.a. 828-1132) (Homo sapiens, UniProt O60674).
T1 construct: JAK2 (a.a. 828-1132); His tag (N); made in house; host or cells: insect cells (baculovirus)
Briefly: In vitro JAK kinase assay (HTRF, phosphorylation of a biotinylated peptide), JAK2. The settings on record: Table D1. In a few lines: (§1)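 Phosphorylation of a biotinylated peptide by the JAK kinase domain, detected by HTRF with Eu-Py20 and SA-APC. ATP was 90 μM for JAK1, 30 μM for JAK2 and 3 μM for JAK3. Reactions ran 1 h at room temperature and were stopped with EDTA, followed by 40 min antibody binding.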
(In general: In TR-FRET formats the signal depends on donor and acceptor labels being close together.)

The target of a further assay is TYK2 (Homo sapiens, UniProt P29597). Briefly: TYK2 kinase inhibition (Table A1). Particulars: Table D1.
Chain of TYK2 (P29597 whole entry): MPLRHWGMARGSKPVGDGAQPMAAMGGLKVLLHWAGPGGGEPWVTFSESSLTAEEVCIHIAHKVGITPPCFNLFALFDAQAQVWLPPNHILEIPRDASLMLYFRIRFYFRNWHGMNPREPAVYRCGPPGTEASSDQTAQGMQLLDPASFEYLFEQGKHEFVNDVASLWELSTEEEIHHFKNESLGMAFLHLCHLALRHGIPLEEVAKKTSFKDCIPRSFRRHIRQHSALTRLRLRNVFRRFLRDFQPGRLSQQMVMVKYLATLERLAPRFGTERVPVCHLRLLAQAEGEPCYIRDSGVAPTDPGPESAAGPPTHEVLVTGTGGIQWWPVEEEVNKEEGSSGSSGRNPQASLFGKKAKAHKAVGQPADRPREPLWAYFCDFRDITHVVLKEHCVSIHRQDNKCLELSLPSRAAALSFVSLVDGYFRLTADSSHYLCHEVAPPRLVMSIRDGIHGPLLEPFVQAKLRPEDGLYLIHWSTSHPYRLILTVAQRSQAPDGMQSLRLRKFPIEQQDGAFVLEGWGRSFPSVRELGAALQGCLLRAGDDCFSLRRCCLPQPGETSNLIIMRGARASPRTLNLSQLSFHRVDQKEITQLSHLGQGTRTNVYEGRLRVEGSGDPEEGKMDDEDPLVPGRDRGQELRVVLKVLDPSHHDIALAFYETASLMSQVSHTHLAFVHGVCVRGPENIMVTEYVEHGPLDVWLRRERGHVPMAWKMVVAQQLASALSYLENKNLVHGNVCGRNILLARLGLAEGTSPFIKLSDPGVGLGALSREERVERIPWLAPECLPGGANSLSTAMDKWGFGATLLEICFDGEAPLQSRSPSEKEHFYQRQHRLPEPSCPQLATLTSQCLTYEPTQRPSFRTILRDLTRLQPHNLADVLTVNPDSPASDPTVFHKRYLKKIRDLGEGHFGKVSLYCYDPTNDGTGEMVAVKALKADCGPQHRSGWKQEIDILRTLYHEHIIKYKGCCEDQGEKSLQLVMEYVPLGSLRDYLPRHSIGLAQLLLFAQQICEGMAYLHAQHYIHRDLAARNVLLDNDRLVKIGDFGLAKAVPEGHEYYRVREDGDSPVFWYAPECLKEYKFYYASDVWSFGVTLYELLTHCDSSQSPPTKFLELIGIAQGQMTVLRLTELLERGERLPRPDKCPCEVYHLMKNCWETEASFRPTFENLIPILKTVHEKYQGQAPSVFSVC
Assay [2] has as its target T2, human JAK1 (a.a. 837-1142) (Homo sapiens, UniProt P23458).
T2 construct: human JAK1 (a.a. 837-1142); His tag (N); made in house; host or cells: insect cells (baculovirus)
Briefly: In vitro JAK kinase assay (HTRF, phosphorylation of a biotinylated peptide), JAK1. Particulars: Table D1; read-out: JAK1 IC50. A digest of the protocol: as §1

For assay [3], the target named is T3, Recombinant Human Anaplastic Lymphoma Kinase (Homo sapiens, UniProt Q9UM73).
T3 construct: purchased Invitrogen, Carlsbad, Calif
T3 sequence (Q9UM73 19-1620): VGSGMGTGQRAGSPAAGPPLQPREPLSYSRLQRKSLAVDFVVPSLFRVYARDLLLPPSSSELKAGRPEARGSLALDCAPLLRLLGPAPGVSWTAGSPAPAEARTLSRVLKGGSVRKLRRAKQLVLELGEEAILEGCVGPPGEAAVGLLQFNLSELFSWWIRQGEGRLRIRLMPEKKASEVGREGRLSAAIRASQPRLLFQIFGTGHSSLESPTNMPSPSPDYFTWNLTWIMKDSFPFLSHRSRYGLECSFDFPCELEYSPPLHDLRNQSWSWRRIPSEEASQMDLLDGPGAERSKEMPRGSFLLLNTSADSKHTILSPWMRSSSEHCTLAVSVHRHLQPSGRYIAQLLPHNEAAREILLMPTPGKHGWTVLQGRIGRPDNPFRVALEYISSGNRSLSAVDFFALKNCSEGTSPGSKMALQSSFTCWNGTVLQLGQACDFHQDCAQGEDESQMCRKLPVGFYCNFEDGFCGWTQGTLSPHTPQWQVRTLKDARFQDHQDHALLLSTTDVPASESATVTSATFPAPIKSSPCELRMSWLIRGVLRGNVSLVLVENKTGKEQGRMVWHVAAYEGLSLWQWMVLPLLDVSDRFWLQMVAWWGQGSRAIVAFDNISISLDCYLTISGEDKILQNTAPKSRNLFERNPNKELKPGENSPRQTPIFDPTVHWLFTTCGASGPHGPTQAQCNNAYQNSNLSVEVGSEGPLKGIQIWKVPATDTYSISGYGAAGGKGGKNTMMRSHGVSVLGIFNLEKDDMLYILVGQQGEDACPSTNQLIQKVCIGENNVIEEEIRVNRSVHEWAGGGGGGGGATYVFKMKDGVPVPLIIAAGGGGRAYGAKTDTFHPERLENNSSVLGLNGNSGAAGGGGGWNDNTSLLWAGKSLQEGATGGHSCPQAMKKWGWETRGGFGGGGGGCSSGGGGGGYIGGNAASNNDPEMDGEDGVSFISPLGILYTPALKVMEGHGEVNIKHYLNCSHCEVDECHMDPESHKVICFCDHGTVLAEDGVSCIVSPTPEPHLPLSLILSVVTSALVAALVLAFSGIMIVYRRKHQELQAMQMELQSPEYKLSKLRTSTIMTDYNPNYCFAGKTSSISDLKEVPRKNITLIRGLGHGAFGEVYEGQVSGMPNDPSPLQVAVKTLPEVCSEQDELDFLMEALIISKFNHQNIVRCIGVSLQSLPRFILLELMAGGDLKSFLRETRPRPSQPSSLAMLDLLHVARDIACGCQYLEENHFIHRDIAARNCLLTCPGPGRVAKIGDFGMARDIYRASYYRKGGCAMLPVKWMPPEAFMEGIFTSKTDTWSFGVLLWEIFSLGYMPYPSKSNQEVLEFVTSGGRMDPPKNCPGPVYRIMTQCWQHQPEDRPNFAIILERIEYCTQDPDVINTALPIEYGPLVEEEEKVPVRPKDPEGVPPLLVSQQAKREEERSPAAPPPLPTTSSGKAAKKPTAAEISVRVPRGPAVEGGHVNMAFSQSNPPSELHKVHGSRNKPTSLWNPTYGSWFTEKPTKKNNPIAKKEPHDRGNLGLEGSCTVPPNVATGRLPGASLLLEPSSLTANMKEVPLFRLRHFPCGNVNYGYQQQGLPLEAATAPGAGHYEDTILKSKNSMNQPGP
Briefly: ALK HTRF kinase assay. The settings on record: Table D1; 90 μM ATP. A digest of the protocol: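 Readout was HTRF between a Eu-W1024 anti-phosphotyrosine antibody and streptavidin-APC bound to biotinylated peptide phosphorylated by recombinant human ALK. IC50 values came from a four-parameter logistic fit.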

In assay [4] the target is T4, human JAK3 (a.a. 781-1124) (Homo sapiens, UniProt P52333).
T4 construct: JAK3 (a.a. 781-1124); His tag (N); made in house; host or cells: insect cells (baculovirus)
T4 sequence (P52333 781-1124): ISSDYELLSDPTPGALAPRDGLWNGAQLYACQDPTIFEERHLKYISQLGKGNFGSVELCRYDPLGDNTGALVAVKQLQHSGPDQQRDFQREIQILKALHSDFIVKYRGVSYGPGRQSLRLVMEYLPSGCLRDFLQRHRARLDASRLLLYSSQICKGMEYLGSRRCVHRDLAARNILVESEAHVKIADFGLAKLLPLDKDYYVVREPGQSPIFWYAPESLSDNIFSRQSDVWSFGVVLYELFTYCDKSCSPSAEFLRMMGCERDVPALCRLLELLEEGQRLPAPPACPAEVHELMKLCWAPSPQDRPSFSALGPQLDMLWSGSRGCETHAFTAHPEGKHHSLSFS
Kind of assay: In vitro JAK kinase assay (HTRF, phosphorylation of a biotinylated peptide), JAK3. Particulars: Table D1. In a few lines:
as §1

pIC50: −log10 of the molar value. Counter-ions that a name gives are not always drawn.

T1 sequence (O60674 828-1132): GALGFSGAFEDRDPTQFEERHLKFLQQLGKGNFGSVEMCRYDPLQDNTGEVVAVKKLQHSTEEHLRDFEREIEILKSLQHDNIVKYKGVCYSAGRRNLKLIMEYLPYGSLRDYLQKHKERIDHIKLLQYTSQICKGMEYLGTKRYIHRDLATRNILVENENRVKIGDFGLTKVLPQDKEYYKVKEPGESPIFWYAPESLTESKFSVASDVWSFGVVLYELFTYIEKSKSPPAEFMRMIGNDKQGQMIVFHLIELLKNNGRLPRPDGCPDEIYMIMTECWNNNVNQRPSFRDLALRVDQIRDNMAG
T2 sequence (P23458 849-1154): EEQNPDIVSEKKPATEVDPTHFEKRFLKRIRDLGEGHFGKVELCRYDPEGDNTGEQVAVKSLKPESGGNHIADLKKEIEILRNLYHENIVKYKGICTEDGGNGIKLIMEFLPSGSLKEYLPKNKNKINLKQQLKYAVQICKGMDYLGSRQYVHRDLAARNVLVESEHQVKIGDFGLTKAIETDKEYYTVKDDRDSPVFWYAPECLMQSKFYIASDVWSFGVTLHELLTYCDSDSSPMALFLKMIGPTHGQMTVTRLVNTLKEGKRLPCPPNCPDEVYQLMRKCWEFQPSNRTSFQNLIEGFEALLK

As usually defined, the pIC50 is −log10 of the IC50, conventionally taken in molar units. Regarding `O=C(Nc1cc2cc(c1)OCCSc1cccc(c1)Nc1nc(ncc1Cl)N2)c1ccccc1` [Example D57, N-[6-Chloro-17-oxa-14-thia-2,4,8,24-tetraazatetracyclo[16.3.1.1(3,7).1(9,13)]tetracosa-1(22),3(24),4,6,9(23),10,12,18,20-nonaen-20-yl]benzamide trifluoroacetate], the negative logarithm of the IC50 (pIC50) in assay [1] is 8.64; at TYK2 it was 8.13; in assay [2] it was 7.96; in assay [3] it was 6.37; in assay [4], 7.68.
As for `Cc1cc(C(=O)Nc2cc3cc(c2)OCCSc2cccc(c2)Nc2nc(ncc2Cl)N3)no1` [Example D58, N-[6-Chloro-17-oxa-14-thia-2,4,8,24-tetraazatetracyclo[16.3.1.1(3,7).1(9,13)]tetracosa-1(22),3(24),4,6,9(23),10,12,18,20-nonaen-20-yl]-5-methylisoxazole-3-carboxamide trifluoroacetate], the pIC50 in assay [1] was 8.89; on TYK2, 8.60; in assay [2], 8.19; in assay [3], 6.31; in assay [4], 7.68.
As for `O=C(Nc1cc2cc(c1)OCCSc1cccc(c1)Nc1nc(ncc1Cl)N2)c1ccno1` [Example D59, N-[6-Chloro-17-oxa-14-thia-2,4,8,24-tetraazatetracyclo[16.3.1.1(3,7).1(9,13)]tetracosa-1(22),3(24),4,6,9(23),10,12,18,20-nonaen-20-yl]isoxazole-5-carboxamide trifluoroacetate], the pIC50 in assay [1] was 9.22; against TYK2, 8.68; in assay [2], 8.64; in assay [3] it was 6.70; in assay [4], 8.15.
`O=C(Nc1cc2cc(c1)OCCSc1cccc(c1)Nc1nc(ncc1Cl)N2)c1ccncc1` [Example D60, N-[6-Chloro-17-oxa-14-thia-2,4,8,24-tetraazatetracyclo[16.3.1.1(3,7).1(9,13)]tetracosa-1(22),3(24),4,6,9(23),10,12,18,20-nonaen-20-yl]isonicotinamide bis(trifluoroacetate)]: the negative logarithm of the IC50 (pIC50) in assay [1] was 9.22; at TYK2, 8.89; in assay [2] it was 8.70; in assay [3], 6.89; in assay [4], 8.30.
For `O=C(Nc1cc2cc(c1)OCCSc1cccc(c1)Nc1nc(ncc1Cl)N2)c1ccc2occc2c1` [Example D61, N-[6-Chloro-17-oxa-14-thia-2,4,8,24-tetraazatetracyclo[16.3.1.1(3,7).1(9,13)]tetracosa-1(22),3(24),4,6,9(23),10,12,18,20-nonaen-20-yl]-1-benzofuran-5-carboxamide trifluoroacetate], in that order: 8.68, 8.10, 7.74, less than 5.00 and 7.39.
`O=C(Nc1cc2cc(c1)OCCSc1cccc(c1)Nc1nc(ncc1Cl)N2)c1ccco1` [Example D62, N-[6-Chloro-17-oxa-14-thia-2,4,8,24-tetraazatetracyclo[16.3.1.1(3,7).1(9,13)]tetracosa-1(22),3(24),4,6,9(23),10,12,18,20-nonaen-20-yl]-2-furamide trifluoroacetate]: the pIC50 in assay [1] is 8.68; on TYK2 it was 8.21; in assay [2] it was 8.14; in assay [3] it was 6.42; in assay [4], 7.74.
`O=C(Nc1cc2cc(c1)OCCSc1cccc(c1)Nc1nc(ncc1Cl)N2)c1cccs1` [Example D63, N-[6-Chloro-17-oxa-14-thia-2,4,8,24-tetraazatetracyclo[16.3.1.1(3,7).1(9,13)]tetracosa-1(22),3(24),4,6,9(23),10,12,18,20-nonaen-20-yl]thiophene-2-carboxamide trifluoroacetate]: the pIC50 was 8.82 in assay [1]; 8.27 against TYK2; 8.17 in assay [2]; 6.21 in assay [3]; 7.72 in assay [4].
With `O=C(Cc1ccccc1)Nc1cc2cc(c1)OCCSc1cccc(c1)Nc1nc(ncc1Cl)N2` [Example D64, trifluoroacetate], the negative-log IC50 (pIC50) in assay [1] was 9.70; at TYK2 it was 8.43; in assay [2], 8.42; in assay [3], 6.35; in assay [4], 8.08.
On to `O=C(Nc1ccccc1)Nc1cc2cc(c1)OCCSc1cccc(c1)Nc1nc(ncc1Cl)N2` [Example D65, N-[6-Chloro-17-oxa-14-thia-2,4,8,24-tetraazatetracyclo[16.3.1.1(3,7).1(9,13)]tetracosa-1(22),3(24),4,6,9(23),10,12,18,20-nonaen-20-yl]-N′-phenylurea trifluoroacetate], for which the pIC50 is 8.29 in assay [1]; 8.19 against TYK2; 7.74 in assay [2]; less than 6.00 in assay [3]; 7.80 in assay [4].
As for `O=C(NCc1ccccc1)Nc1cc2cc(c1)OCCSc1cccc(c1)Nc1nc(ncc1Cl)N2` [Example D66, N-Benzyl-N′-[6-chloro-17-oxa-14-thia-2,4,8,24-tetraazatetracyclo[16.3.1.1(3,7).1(9,13)]tetracosa-1(22),3(24),4,6,9(23),10,12,18,20-nonaen-20-yl]urea trifluoroacetate], the negative logarithm of the IC50 (pIC50) in assay [1] is 8.52; on TYK2, 8.47; in assay [2], 8.14; in assay [3], 6.11; in assay [4], 8.02.
Take `O=C(NCc1ccco1)Nc1cc2cc(c1)OCCSc1cccc(c1)Nc1nc(ncc1Cl)N2` [Example D67, N-[6-Chloro-17-oxa-14-thia-2,4,8,24-tetraazatetracyclo[16.3.1.1(3,7).1(9,13)]tetracosa-1(22),3(24),4,6,9(23),10,12,18,20-nonaen-20-yl]-N′-(2-furylmethyl)urea trifluoroacetate]: the pIC50 in assay [1] was 8.74; at TYK2, 8.62; in assay [2], 8.49; in assay [3], less than 6.00; in assay [4] it was 8.08.
On to `O=S(=O)(Nc1cc2cc(c1)OCCSc1cccc(c1)Nc1nc(ncc1Cl)N2)c1ccccc1` [Example D68, N-[6-Chloro-17-oxa-14-thia-2,4,8,24-tetraazatetracyclo[16.3.1.1(3,7).1(9,13)]tetracosa-1(22),3(24),4,6,9(23),10,12,18,20-nonaen-20-yl]benzenesulfonamide trifluoroacetate], for which the pIC50 in assay [1] was 8.24; at TYK2, 7.49; in assay [2] it was 7.85; in assay [3] it was 6.47; in assay [4], 7.44.
For `Cc1nc(S(=O)(=O)Nc2cc3cc(c2)OCCSc2cccc(c2)Nc2nc(ncc2Cl)N3)cn1C` [Example D69, N-[6-Chloro-17-oxa-14-thia-2,4,8,24-tetraazatetracyclo[16.3.1.1(3,7).1(9,13)]tetracosa-1(22),3(24),4,6,9(23),10,12,18,20-nonaen-20-yl]-1,2-dimethyl-1H-imidazole-4-sulfonamide bis(trifluoroacetate)], in that order: 8.85, 8.08, 8.46, 6.80 and 8.07.
`Clc1cnc2nc1Nc1cccc(c1)OCCNc1cccc(c1)N2` [Example D70, 6-Chloro-14-oxa-2,4,8,17,24-pentaazatetracyclo[16.3.1.1(3,7).1(9,13)]tetracosa-1(22),3(24),4,6,9(23),10,12,18,20-nonaene bis(trifluoroacetate)]: the negative-log IC50 (pIC50) was 8.68 in assay [1]; 8.30 against TYK2; 8.05 in assay [2]; 6.43 in assay [3]; 8.09 in assay [4].
As to `CC(=O)N1Cc2cccc(c2)Nc2nc(ncc2Cl)Nc2cccc1c2` [Example D71, 15-Acetyl-6-chloro-2,4,8,15,22-pentaazatetracyclo[14.3.1.1(3,7).1(9,13)]docosa-1(20),3(22),4,6,9(21),10,12,16,18-nonaene trifluoroacetate], the pIC50 is 6.73 in assay [1]; 6.52 against TYK2; 6.82 in assay [2]; less than 6.00 in assay [3]; 7.19 in assay [4].
As to `Clc1cnc2nc1Nc1cccc(c1)NCCOc1cccc(c1)N2` [Example D72, 6-Chloro-17-oxa-2,4,8,14,24-pentaazatetracyclo[16.3.1.1(3,7).1(9,13)]tetracosa-1(22),3(24),4,6,9(23),10,12,18,20-nonaene bis(trifluoroacetate)], the pIC50 in assay [1] was 8.66; against TYK2, 8.16; in assay [2], 7.92; in assay [3] it was 6.11; in assay [4], 8.13.
For `Clc1cnc2nc1Nc1cccc(c1)CNCc1cccc(c1)N2` [Example D73, 6-Chloro-2,4,8,15,23-pentaazatetracyclo[15.3.1.1(3,7).1(9,13)]tricosa-1(21),3(23),4,6,9(22),10,12,17,19-nonaene bis(trifluoroacetate)], the pIC50 in assay [1] is 6.97; against TYK2, 6.72; in assay [2], 7.08; in assay [3] it was 5.88; in assay [4], 7.17.
